Laboratory results published in ChEMBL document CHEMBL1147468, “Synthesis and anti-inflammatory effects of novel pimarane diterpenoid analogs” (Bioorg Med Chem Lett, 2004).
Activity calls are given as the source filed them. The calls are words filed in the database; no cut-off is given here.

Columns and labels:
[1] = tested on: RAW264.7; experiment: In vitro inhibition of NO production at 40 uM concentration in RAW 264.7 cells; No activity; type: functional, cell-based; conditions: Mus musculus
[2] = tested on: RAW264.7; experiment: In vitro inhibition of NO production at 40 uM concentration in RAW 264.7 cells; type: functional; conditions: Mus musculus
[3] = molecular target: T1, Prostaglandin G/H synthase 2 (Ovis aries, UniProt P79208); experiment: In vitro inhibition of Prostaglandin G/H synthase 2 from sheep placental cotyledons; No activity
T1 sequence (P79208 whole entry): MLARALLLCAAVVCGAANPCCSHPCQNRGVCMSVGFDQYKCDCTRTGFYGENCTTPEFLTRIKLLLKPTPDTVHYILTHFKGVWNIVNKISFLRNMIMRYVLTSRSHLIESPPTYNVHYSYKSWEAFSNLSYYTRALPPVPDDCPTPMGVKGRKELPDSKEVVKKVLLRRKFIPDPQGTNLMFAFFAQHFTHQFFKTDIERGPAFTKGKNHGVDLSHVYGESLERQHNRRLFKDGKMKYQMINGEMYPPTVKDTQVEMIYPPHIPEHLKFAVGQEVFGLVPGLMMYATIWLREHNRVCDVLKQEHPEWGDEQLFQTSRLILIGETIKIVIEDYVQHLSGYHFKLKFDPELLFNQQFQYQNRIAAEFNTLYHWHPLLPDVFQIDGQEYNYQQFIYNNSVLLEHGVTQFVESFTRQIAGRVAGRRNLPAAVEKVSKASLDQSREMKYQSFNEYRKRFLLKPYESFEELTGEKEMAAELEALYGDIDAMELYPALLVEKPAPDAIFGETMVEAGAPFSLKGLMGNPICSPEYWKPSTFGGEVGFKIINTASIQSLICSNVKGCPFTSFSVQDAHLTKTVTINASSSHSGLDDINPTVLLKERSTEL

[4] = molecular target: T1, Prostaglandin G/H synthase 2; experiment: In vitro inhibition of Prostaglandin G/H synthase 2 from sheep placental cotyledons

C=C[C@@]1(C)CC=C2C(CCC3[C@](C)(CC(=O)O)CCC[C@@]23C)C1 (stereo not given in full)
inhibition [1]: inactive

C=C[C@@]1(C)CC=C2C(CCC3[C@](C)(CCCCC(=O)O)CCC[C@@]23C)C1 (stereo not given in full)
inhibition at 40 µM [2]: 99%

C=C[C@@]1(C)CC=C2C(CCC3[C@](C)(C(=O)NN)CCC[C@@]23C)C1 (stereo not given in full)
inhibition at 40 µM [2]: 3.4%

C=C[C@@]1(C)CC=C2C(CCC3[C@](C)(CO)CCC[C@@]23C)C1 (stereo not given in full) [ACANTHOL]
IC50 [3]: Not Active | inhibition at 40 µM [2]: 84.8%

C=C[C@@]1(C)CC=C2C(CCC3[C@](C)(CCC/C=C/C(=O)O)CCC[C@@]23C)C1 (stereo not given in full)
inhibition at 40 µM [2]: 98.2% | IC50 [4]: 37.8 µM

C=C[C@@]1(C)CC=C2C(CCC3[C@](C)(C/C=C\C(=O)O)CCC[C@@]23C)C1 (stereo not given in full)
inhibition at 40 µM [2]: 77.9%

C=C[C@@]1(C)CC=C2C(CCC3[C@](C)(CCCC(=O)O)CCC[C@@]23C)C1 (stereo not given in full)
inhibition at 40 µM [2]: 65.2%

C=C[C@@]1(C)CC=C2C(CCC3[C@](C)(CCC(=O)O)CCC[C@@]23C)C1 (stereo not given in full)
inhibition at 40 µM [2]: 23%

C=C[C@@]1(C)CC=C2C(CCC3[C@@]2(C)CCC[C@@]3(C)/C=C/C=C/C(=O)O)C1 (stereo not given in full)
inhibition at 40 µM [2]: 96.5%

C=C[C@@]1(C)CC=C2C(CCC3[C@](C)(CC(=O)NS(=O)(=O)c4ccc(I)cc4)CCC[C@@]23C)C1 (stereo not given in full)
inhibition at 40 µM [2]: 94.6% | IC50 [4]: 72.2 µM

C=C[C@@]1(C)CC=C2C(CCC3[C@@]2(C)CCC[C@@]3(C)/C=C/C(=O)O)C1 (stereo not given in full)
inhibition at 40 µM [2]: 45.1%

C=C[C@@]1(C)CC=C2C(CCC3[C@](C)(C(=O)n4ccnc4)CCC[C@@]23C)C1 (stereo not given in full)
IC50 [3]: Not Active | inhibition at 40 µM [2]: 99%

C=C[C@@]1(C)CC=C2C(CCC3[C@](C)(C(=O)NC)CCC[C@@]23C)C1 (stereo not given in full)
IC50 [3]: Not Active | inhibition at 40 µM [2]: 85.3%

C=C[C@@]1(C)CC=C2C(CCC3[C@](C)(CCC(=O)NS(=O)(=O)c4ccc(I)cc4)CCC[C@@]23C)C1 (stereo not given in full)
inhibition at 40 µM [2]: 99.5% | IC50 [4]: 60.7 µM
